Assay results from patent publication US20140329863A1 (priority 2011, published 2014).
In brackets after ≈: the same amount, converted by molar mass. Read-outs that look alike come from different tables or passages of the source.

Experiments:
[1] = Hepatic microsome stability, mouse; type: in vitro ADME; settings: mouse liver microsomes
Method: (§1) Hepatic microsomal stability assays were performed in two stages. In the first set of experiments, aliquots of the DMSO solute stocks were diluted into ACN and then into assay buffer (PBS, pH 7.4, ±0.05% PS80). Final experimental solute concentrations were 1 μM (0.6% ACN, 0.01% DMSO). Commercially available mouse, rat, or human hepatic microsomes (˜0.5 mg/ml final concentration), and NADPH (1 mM) or PBS were added. The resulting mixture was incubated at 37° C., and aliquots removed at 0, 1, 10, 30 and 60 min, then quenched with ACN containing 2 μM carbamazepine (internal standard). […] Duplicate incubations were run for each time-point. The percentage of solute remaining at the end of the incubation was used to determine solute half-life.
(§2) These were diluted 500-fold into 1 mL of microsomal incubation mixture to yield a final concentration of 1 μM. The incubation mixture was composed of 100 mM phosphate buffer, pH 7.4, and NADPH regenerating system (BD Biosciences NADPH Regenerating System Solutions A & B). This mixture was preincubated at 37° C. for 5 min in an Eppendorf Thermo mixer, and the reaction initiated by addition of 0.5 mg (25 μl of a 20 mg/mL solution) of liver microsomes. Aliquots (100 μl) were withdrawn at 0, 5, 15, 30, and 60 min, and added to 100 μl ACN containing internal standard. […] The percentage of solute remaining at the end of the incubation was used to determine species-specific values of scaled intrinsic clearance, hepatic clearance, and predicted hepatic extraction based upon the calculations below {Obach, 1999 #9097}.
(§3) for which mg microsomal protein/gm liver was 45 for all species, and gm liver/kg body weight were 32 for dog, 88 for mouse, 40 for rat and 25 for human.
(§4) Clh=(Q*Clint,scaled)/(Q+Clint,scaled)
(§5) for which Q was hepatic blood flow; values of 90 ml/min/kg for mouse, 66 ml/min/kg for rat, and 21 ml/min/kg for human were used.
(§6) for which ER estimates the amount of compound cleared during a single pass through the liver (Low ER<0.3, moderate ER 0.3-0.7, high ER>0.7).

[2] = Hepatic microsome stability, human; type: in vitro ADME; settings: human liver microsomes
Method: as §1, §2, §3, §4, §5, §6

[3] = […]
[4] = for solubility in FaSSIF (in words): fasted-state simulated intestinal fluid; for solubility at pH 2.0 (in words): pH 2 (HCl) buffer
in vitro = settings: dog, MDCK-MDR1
P-gp (MDR1) = test: in vitro; settings: dog, MDCK-MDR1
[5] = Hepatic microsomal stability, rat; settings: for half-life at 1 μM: Sprague-Dawley, pH 7.4
[6] = Hepatic microsomal stability, mouse; settings: for half-life at 1 μM: CD-1, mouse, pH 7.4
[7] = Hepatic microsomal stability, human; settings: for half-life at 1 μM: pH 7.4
[8] = Multidose (three-day) pharmacokinetics in liquid diet in FVB mice; settings: FVB, mouse, in vivo
[9] = Single-dose pharmacokinetics in FVB mice (oral gavage, IV); settings: single oral dose 40 mg/kg
[10] = cell culture media, plasma or biological fluid
[11] = pH 2 (HCl) buffer, pH 2, simulated gastric fluid
[12] = pH 7.4 (phosphate) buffer, pH 7.4, aqueous buffer
[13] = 40 mg/kg, Brain Concentration (Css), three-day dosing in liquid diet, brain
[14] = 130 mg/kg, Brain Concentration (Css), three-day dosing in liquid diet, brain
[15] = 210 mg/kg, Brain Concentration (Css), three-day dosing in liquid diet, brain
[16] = Brain and plasma concentrations, 40, 80, 130 and 210 mg/kg/day for 3 days

| Compound | hepatic extraction ratio (ER) [1] | hepatic extraction ratio (ER) [2] | hepatic extraction ratio (ER) [3] | solubility in FaSSIF (in words) [4] | solubility at pH 2.0 (in words) [4] | solubility (physchem; FaSSIF) [µM] | solubility (physchem; [10]) [µM] | solubility (physchem; [11]) [µM] | solubility (physchem; [12]) [µM] | Papp A→B (in vitro) [×10⁻⁶ cm/s] | Papp B→A (in vitro) [×10⁻⁶ cm/s] | efflux ratio (P-gp (MDR1)) | half-life at 1 μM ([5]; rat) [min] | % remaining after a 60-min incubation, Rat [5] [%] | Hepatic Extraction Ratio Rat ([5]; rat microsomes) | half-life at 1 μM ([6]; liver microsomes) [min] | half-life at 1 μM ([6]; mouse liver microsomes) [min] | % remaining after a 60-min incubation, Mouse ([6]; mouse liver microsomes) [%] | Hepatic Extraction Ratio Mouse ([6]; mouse microsomes) | % remaining after a 60-min incubation, Human ([7]; human liver microsomes) [%] | other results |
| --- | --- | --- | --- | --- | --- | --- | --- | --- | --- | --- | --- | --- | --- | --- | --- | --- | --- | --- | --- | --- | --- |
| COc1ccc(-c2csc(Nc3ccc4ccccc4n3)n2)cc1OC [IND47, [4-(3,4-Dimethoxy-phenyl)-thiazol-2-yl]-quinolin-2-yl-amine] | lower to moderate | lower to moderate | lower to moderate | lower solubility | lower solubility | 5 (≈ 1.82 µg/mL) | 52 (≈ 18.9 µg/mL) | < 1 | < 1 | 9.2 | 8.9 | 1 | > 60 | 50 | 0.5 | 72 | > 60 | 56 | 0.6 | 113 | t1/2 Rat (extrapolated) ([5]; rat microsomes, * extrapolated): 69* min; half-life at 1 μM ([7]; human, human liver microsomes): > 60 min; half-life at 1 μM ([7]; human, liver microsomes): > 60 min; concentration at 3 days [8, 13]: 400 ± 280 nM; concentration at 3 days ([8]; 40 mg/kg, Plasma Concentration (Css), three-day dosing in liquid diet, plasma): 130 ± 100 nM; concentration at 3 days ([8]; 80 mg/kg, Plasma Concentration (Css), three-day dosing in liquid diet, plasma): 30 ± 20 nM; concentration at 3 days [8, 14]: 400 ± 510 nM; concentration at 3 days ([8]; 130 mg/kg, Plasma Concentration (Css), three-day dosing in liquid diet, plasma): 60 ± 20 nM; concentration at 3 days [8, 15]: 230 ± 260 nM; concentration at 3 days ([8]; 210 mg/kg, Plasma Concentration (Css), three-day dosing in liquid diet, plasma): 120 ± 50 nM; concentration at 3 days [8, 16]: ≤ 1000 nM |
| c1ccc2cc(Nc3nc(-c4ccncc4)cs3)ncc2c1 [IND85, Isoquinolin-3-yl-(4-pyridin-4-yl-thiazol-2-yl)-amine] | higher | higher | higher | lower solubility | higher solubility | 3 (≈ 0.913 µg/mL) | 116 (≈ 35.3 µg/mL) | 196 (≈ 59.7 µg/mL) | < 1 | 3.03 | 4.44 | 1.5 | 18 | 32 | 0.8 | 15 | 15 | 6 | 0.9 | 66 | Hepatic Extraction Ratio Rat ([5]; rat): 0.8; Hepatic Extraction Ratio Mouse ([6]; mouse): 0.9; Hepatic Extraction Ratio Human ([7]; human): 0.7; Hepatic Extraction Ratio Human ([7]; human microsomes): 0.7; half-life at 1 μM ([7]; human, human liver microsomes): 53 min; half-life at 1 μM ([7]; human, liver microsomes): 53 min; Brain Cmax/EC50 ratio, 40 mg/kg [9]: better Cmax:EC50 ratio at either dose; concentration at 3 days [8, 13]: 20 ± 30 nM; concentration at 3 days ([8]; 80 mg/kg, Brain Concentration (Css), three-day dosing in liquid diet, brain): 80 ± 30 nM; concentration at 3 days [8, 14]: 40 ± 30 nM; concentration at 3 days [8, 15]: 100 ± 70 nM; concentration at 3 days [8, 16]: ≤ 1000 nM |
